In the NIST ThermoML archive (doi:10.1016/j.fluid.2017.06.022):

Assay: xn = mol fraction of the nth substance listed
Conditions: Liquid, Bellows volumetry

C=CC [propene] + Cc1ccccc1
Conditions	mass density [kg/m3]
422.8 K, 6300 kPa, x1 = 0.7612	383
422.8 K, 6800 kPa, x1 = 0.7612	392.4
422.8 K, 7500 kPa, x1 = 0.7612	405.5
422.8 K, 8900 kPa, x1 = 0.7612	424.5
422.8 K, 10600 kPa, x1 = 0.7612	441.8
422.8 K, 15400 kPa, x1 = 0.7612	476.7
422.8 K, 17400 kPa, x1 = 0.7612	484.1
422.8 K, 24400 kPa, x1 = 0.7612	508.8
422.8 K, 31000 kPa, x1 = 0.7612	527.4
422.8 K, 37800 kPa, x1 = 0.7612	543.1
422.8 K, 44900 kPa, x1 = 0.7612	556.7
422.8 K, 51600 kPa, x1 = 0.7612	566.8
422.8 K, 58200 kPa, x1 = 0.7612	576.2
422.8 K, 63200 kPa, x1 = 0.7612	583.4
422.8 K, 67200 kPa, x1 = 0.7612	588.5
424 K, 4500 kPa, x1 = 0.53	514
424 K, 4800 kPa, x1 = 0.53	516.1
424 K, 5300 kPa, x1 = 0.53	519
424 K, 5900 kPa, x1 = 0.53	522.7
424 K, 7100 kPa, x1 = 0.53	529
424 K, 8700 kPa, x1 = 0.53	535.9
424 K, 10400 kPa, x1 = 0.53	543
424 K, 17000 kPa, x1 = 0.53	563.7
424 K, 24000 kPa, x1 = 0.53	581.4
424 K, 30500 kPa, x1 = 0.53	594.5
425.2 K, 1300 kPa, x1 = 0.1159	668.8
425.2 K, 1600 kPa, x1 = 0.1159	669.7
425.2 K, 2200 kPa, x1 = 0.1159	671
425.2 K, 3200 kPa, x1 = 0.1159	673.2
425.2 K, 5400 kPa, x1 = 0.1159	678.2
425.2 K, 7000 kPa, x1 = 0.1159	681.3
425.2 K, 10300 kPa, x1 = 0.1159	688.2
425.2 K, 17100 kPa, x1 = 0.1159	700.5
425.2 K, 24000 kPa, x1 = 0.1159	712.3
425.2 K, 30700 kPa, x1 = 0.1159	721.9
425.2 K, 37600 kPa, x1 = 0.1159	730.7
425.2 K, 44700 kPa, x1 = 0.1159	738.6
425.2 K, 51400 kPa, x1 = 0.1159	745.7
425.2 K, 58400 kPa, x1 = 0.1159	752.3
425.2 K, 63100 kPa, x1 = 0.1159	756.7
425.2 K, 67000 kPa, x1 = 0.1159	760.1
474.3 K, 2200 kPa, x1 = 0.1159	604.5
474.3 K, 2900 kPa, x1 = 0.1159	607.4
474.3 K, 3700 kPa, x1 = 0.1159	610.3
474.3 K, 5300 kPa, x1 = 0.1159	616.2
474.3 K, 7200 kPa, x1 = 0.1159	622.2
474.3 K, 10500 kPa, x1 = 0.1159	632.3
474.3 K, 13900 kPa, x1 = 0.1159	641.4
474.3 K, 17400 kPa, x1 = 0.1159	650.5
474.3 K, 20400 kPa, x1 = 0.1159	657.2
474.3 K, 23700 kPa, x1 = 0.1159	664.4
474.3 K, 31100 kPa, x1 = 0.1159	678.2
474.3 K, 37400 kPa, x1 = 0.1159	688.7
474.3 K, 38000 kPa, x1 = 0.1159	689.6
474.3 K, 44800 kPa, x1 = 0.1159	700.1
474.3 K, 51300 kPa, x1 = 0.1159	708.8
474.4 K, 6700 kPa, x1 = 0.53	412.3
474.4 K, 7200 kPa, x1 = 0.53	423.9
474.4 K, 8100 kPa, x1 = 0.53	437.9
474.4 K, 9200 kPa, x1 = 0.53	450.2
474.4 K, 10700 kPa, x1 = 0.53	464.3
474.4 K, 13800 kPa, x1 = 0.53	487.2
474.4 K, 18000 kPa, x1 = 0.53	509
474.4 K, 23800 kPa, x1 = 0.53	531.7
474.4 K, 31300 kPa, x1 = 0.53	551.8
474.4 K, 37900 kPa, x1 = 0.53	566.1
474.4 K, 44400 kPa, x1 = 0.53	579
474.4 K, 51500 kPa, x1 = 0.53	591.3
474.4 K, 58400 kPa, x1 = 0.53	602.1
474.4 K, 63100 kPa, x1 = 0.53	608.9
474.4 K, 67200 kPa, x1 = 0.53	614.2
474.8 K, 7900 kPa, x1 = 0.7612	213.2
474.8 K, 8500 kPa, x1 = 0.7612	232.7
474.8 K, 9100 kPa, x1 = 0.7612	257.3
474.8 K, 9800 kPa, x1 = 0.7612	279.8
474.8 K, 10600 kPa, x1 = 0.7612	304.4
474.8 K, 11700 kPa, x1 = 0.7612	333.8
474.8 K, 12100 kPa, x1 = 0.7612	337.7
474.8 K, 14600 kPa, x1 = 0.7612	374.6
474.8 K, 17400 kPa, x1 = 0.7612	402.7
474.8 K, 24200 kPa, x1 = 0.7612	442.3
474.8 K, 31800 kPa, x1 = 0.7612	475
474.8 K, 37900 kPa, x1 = 0.7612	493.8
474.8 K, 44600 kPa, x1 = 0.7612	511.3
474.8 K, 51500 kPa, x1 = 0.7612	527.1
474.8 K, 58300 kPa, x1 = 0.7612	540
474.8 K, 63100 kPa, x1 = 0.7612	547.8
474.8 K, 67300 kPa, x1 = 0.7612	553.9
505.4 K, 7200 kPa, x1 = 0.53	291.1
505.4 K, 7700 kPa, x1 = 0.53	316.5
505.4 K, 8000 kPa, x1 = 0.53	328
505.4 K, 8700 kPa, x1 = 0.53	355.4
505.4 K, 9500 kPa, x1 = 0.53	376.8
505.4 K, 10600 kPa, x1 = 0.53	396.8
505.4 K, 13800 kPa, x1 = 0.53	435.7
505.4 K, 17400 kPa, x1 = 0.53	462.3
505.4 K, 24200 kPa, x1 = 0.53	495.4
505.4 K, 31500 kPa, x1 = 0.53	523.8
505.4 K, 37900 kPa, x1 = 0.53	540.2
505.4 K, 44600 kPa, x1 = 0.53	554.8
505.4 K, 51400 kPa, x1 = 0.53	568
505.4 K, 58400 kPa, x1 = 0.53	579.6
505.4 K, 62900 kPa, x1 = 0.53	587.4
505.4 K, 66800 kPa, x1 = 0.53	592.6
554.4 K, 4700 kPa, x1 = 0.1159	442.2
554.4 K, 5300 kPa, x1 = 0.1159	460
554.4 K, 6000 kPa, x1 = 0.1159	475.7
554.4 K, 6600 kPa, x1 = 0.1159	486
554.4 K, 7200 kPa, x1 = 0.1159	493.7
554.4 K, 9400 kPa, x1 = 0.1159	515.7
554.4 K, 10800 kPa, x1 = 0.1159	526.4
554.4 K, 17800 kPa, x1 = 0.1159	567.8
554.4 K, 24100 kPa, x1 = 0.1159	591.2
554.4 K, 30900 kPa, x1 = 0.1159	610.7
554.4 K, 37900 kPa, x1 = 0.1159	626.5
554.4 K, 44500 kPa, x1 = 0.1159	640.2
554.4 K, 51800 kPa, x1 = 0.1159	653
554.4 K, 58200 kPa, x1 = 0.1159	663.6
554.4 K, 63300 kPa, x1 = 0.1159	671.5
554.4 K, 67100 kPa, x1 = 0.1159	676.8
